Measurements: patent US20260042732A1, “Sulfur-containing Compounds and Compositions Thereof for Delivery of Nucleic Acids” (Poseida Therapeutics, Inc., priority 2022, published 2026)
Several values for one entry are separate records, joined by “and”; a condition that tells them apart may be missing. Identical values can stand only once.

Test system: cells in the liver
Test: In vivo screening of LNPs comprising fLuciferase mRNA, bioluminescent imaging (BLI)
Parameters: species or system BALB/C mice
Settings: 0.5 mg/kg fLuciferase mRNA intravenously, BLI at 4 hr
Description: To formulate the LNPs, various percentages of one of COMPOUNDS 3, 6, or 12, the phospholipid (DOPE or DOPC), the structural lipid cholesterol (Chol) and 1,2-dimyristoyl-sn-glycerol methoxypolyethylene glycol (DMG-PEG2000; Avanti Polar Lipids, Alabaster, Alabama, USA) were combined to prepare LNP compositions.
Individual 25 mg/ml stock solutions were prepared by solubilizing the lipids in 200-proof HPLC-grade ethanol and stock solutions were stored at −80° C. until formulated. At the time of formulation, the lipid stock solutions were briefly allowed to equilibrate to room temp and then placed on a hot plate maintained at a temperature range of 50-55° C. Subsequently, the hot lipid stock solutions were combined to yield desired final mole percentages.
A 1 mg/ml solution of the 5′-CleanCap-fLuciferase mRNA (TriLink Biotech) to be incorporated into the LNPs was added to 150 mM sodium acetate buffer (pH 5.2) to form a stock solution and kept on ice. The lipid phase was mixed with the aqueous mRNA phase inside a microfluidic chip using a NanoAssemblr® instrument (Precision Nanosystems, Vancouver, BC, Canada) according to the manufacturer's instructions to form LNP compositions comprising encapsulated mRNAs.
The resultant mRNA LNP compositions were then transferred to a Repligen Float-A-Lyzer dialysis device—having a molecular weight cut off (MWCO) of 8-10 kDa (Spectrum Chemical Mfg. Corp, CA, USA) and processed by dialysis against phosphate buffered saline (PBS) (dialysate:dialysis buffer volume at least 1:200 v/v), pH 7.4 overnight at 4° C. (or alternatively room temperature for at least 4 hours), to remove the 25% ethanol and achieve a complete buffer exchange. […]
The location and extent of luciferase expression in treated and control mice were determined at 4 hr by bioluminescent imaging (BLI) of anesthetized mice using an IVIS Lumina in vivo imaging system (Perkin Elmer) according to the manufacturer's instructions. […]

## CCCCCCCCCCC(CN(CCCN(C)CCCN(CC(CCCCCCCCCC)SSCCO)CC(CCCCCCCCCC)SSCCO)CC(CCCCCCCCCC)SSCCO)SSCCO (stereo not drawn) [Compound 3]
LNP with 33.5% moles compound, 32% DOPE, 33.5% Chol, 1% PEG-DMG, lipid:RNA 40 w/w
  Mean Liver Luciferase Flux: 2.72E+08 p/s
LNP with 43.3% moles compound, 12% DOPC, 43.3% Chol, 1.5% PEG-DMG, lipid:RNA 100 w/w
  Mean Liver Luciferase Flux: 6.49E+10 p/s
LNP with 54% moles compound, 10% DOPC, 35% Chol, 1% PEG-DMG, lipid:RNA 100 w/w, 0.5 mg/kg
  Mean Liver Luciferase Flux: 1.94E+11 p/s and 1.16E+11 p/s
